Source: ChEMBL document CHEMBL6153172, “MALT1 Inhibitors and Degraders: Strategies for NF-κB-Driven Malignancies” (J Med Chem, 2025)
Where a SMILES comes first, the peptide text is derived from it. The star is where a group is joined. Cbz = O=C(OCc1ccccc1)*; CH2F = FC*

Assays:
[1] = system: OCI-Ly3; test: Growth inhibition of human OCI-Ly3 cells
[2] = molecular target: T1, Mucosa-associated lymphoid tissue lymphoma translocation protein 1 (Homo sapiens, UniProt Q9UDY8)
T1 sequence (Q9UDY8 whole entry): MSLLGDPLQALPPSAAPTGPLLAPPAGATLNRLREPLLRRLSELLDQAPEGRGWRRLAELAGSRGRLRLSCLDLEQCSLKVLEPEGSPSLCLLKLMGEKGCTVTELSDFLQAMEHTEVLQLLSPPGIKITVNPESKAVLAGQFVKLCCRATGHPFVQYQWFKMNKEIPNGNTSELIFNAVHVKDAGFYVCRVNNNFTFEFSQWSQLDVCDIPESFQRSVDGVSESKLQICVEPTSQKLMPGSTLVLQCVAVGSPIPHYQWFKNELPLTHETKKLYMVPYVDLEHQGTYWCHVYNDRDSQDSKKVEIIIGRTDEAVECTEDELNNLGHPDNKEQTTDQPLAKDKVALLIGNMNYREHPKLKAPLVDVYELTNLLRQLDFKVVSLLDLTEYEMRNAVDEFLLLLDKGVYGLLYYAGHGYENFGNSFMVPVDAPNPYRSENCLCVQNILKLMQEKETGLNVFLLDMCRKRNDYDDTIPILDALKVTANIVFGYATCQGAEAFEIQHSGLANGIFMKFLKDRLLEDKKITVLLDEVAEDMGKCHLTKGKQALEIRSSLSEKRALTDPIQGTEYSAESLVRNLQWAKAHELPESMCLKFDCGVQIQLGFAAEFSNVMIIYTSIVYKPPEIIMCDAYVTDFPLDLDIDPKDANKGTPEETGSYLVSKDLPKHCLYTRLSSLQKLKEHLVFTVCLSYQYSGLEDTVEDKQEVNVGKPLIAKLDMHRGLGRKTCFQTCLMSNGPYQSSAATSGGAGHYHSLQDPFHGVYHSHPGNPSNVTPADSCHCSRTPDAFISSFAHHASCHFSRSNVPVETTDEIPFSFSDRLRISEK
Description: Inhibition of MALT1 (unknown origin)

[3] = molecular target: T1, Mucosa-associated lymphoid tissue lymphoma translocation protein 1; test: Inhibition MALT1 (unknown origin) using Ac-LRSR-AMC as substrate by fluorescence based analysis
[4] = molecular target: T1, Mucosa-associated lymphoid tissue lymphoma translocation protein 1; test: biochemical
Description: Inhibition of C-terminal human full length wild type MALT1 (329 to 824 residues) extracted from baculovirus infected Sf21 cells using Ac-Leu-Arg-Ser-Arg-Rh110-dPro incubated for 60 mins by fluorescence based analysis

[5] = molecular target: T1, Mucosa-associated lymphoid tissue lymphoma translocation protein 1; test: biochemical; remark: listed apart in the source
Description: Inhibition of human full length His-tagged MALT1 (1 to 824 residues) infected in baculovirus infected Insect cells using Ac-LRSR-AMC as substrate incubated for 1 hr by HTRF assay

[6] = molecular target: T1, Mucosa-associated lymphoid tissue lymphoma translocation protein 1; test: biochemical; remark: listed apart in the source
Description: Inhibition of N-terminal recombinant human MALT1 (329 to 824 residues) extracted from baculovirus infected Sf21 cells using c-LRSR~Rhodamine110-DP as substrate by fluorescence based assay

[7] = molecular target: T1, Mucosa-associated lymphoid tissue lymphoma translocation protein 1; test: Inhibition of N-terminal human recombinant MALT1 expressed in Jurkat cells assessed as suppression of IL-2 secretion
[8] = molecular target: T1, Mucosa-associated lymphoid tissue lymphoma translocation protein 1; remark: listed apart in the source
Description: Binding affinity to full length C-terminal His-tagged wild-type MALT1 catalytic domain (329 to 566 residues) (unknown origin) extracted from Escherichia coli BL21 (DE3) assessed as inhibition constant

[9] = system: OCI-Ly3; test: Antiproliferative activity against human OCI-Ly3 cells; assay type: functional, cell-based
[10] = molecular target: T1, Mucosa-associated lymphoid tissue lymphoma translocation protein 1; test: Inhibition of GST-tagged human recombinant MALT1 extracted from Escherichia coli using Ac-LRSR-AMC as substrate by fluorescence based analysis

SMILES: CC(C)[C@H](NC(=O)OCc1ccccc1)C(=O)N[C@@H](CCCNC(=N)N)C(=O)N1CCC[C@H]1C(=O)N[C@@H](CCCNC(=N)N)C(=O)CF
- GI50 [1]: 2.5 µM

SMILES: CC(C)[C@H](NC(=O)c1ccc(Br)cc1)C(=O)N1CCC[C@H]1C(=O)N[C@@H](CCCNC(=N)N)C(=O)CF
- GI50 [1]: 0.087 µM

SMILES: COC(C)c1c(NC(=O)Nc2cnc(-n3nccn3)c(C(F)(F)F)c2)cnc2sc(C)nc12 (stereo not drawn)
- IC50 [2]: < 0.05 µM

SMILES: CO[C@@H](c1c(NC(=O)Nc2cnc(-n3nccn3)c(C(F)(F)F)c2)cnc(C)c1C#N)C1CC1
- IC50 [2]: 0.02 µM

SMILES: CO[C@@H](C)c1c(NC(=O)Nc2cncc(C(F)(F)F)c2)cnc2cc(Cl)nn12
- IC50 [3]: 0.004 µM

SMILES: CO[C@H](C)c1c(NC(=O)Nc2cnc(C(=O)N3CCCC3)c(Cl)c2)cnc2cc(Cl)nn12
- IC50 [4]: 0.014 µM

SMILES: CO[C@@H](C)c1c(NC(=O)Nc2cnc3c(c2)COc2ccnn2-3)cnc2cc(Cl)nn12
- IC50 [5]: 0.034 µM

SMILES: C[C@]1(C(F)(F)F)CN(C(=O)Nc2cnc(-n3nccn3)c(Cl)c2)c2cnc3cc(Cl)nn3c21
- IC50 [5]: < 0.01 µM

SMILES: CC1(C(F)(F)F)CN(C(=O)Nc2ccc3nonc3c2)c2cnc3cc(Cl)nn3c21 (stereo not drawn)
- IC50 [5]: 0.034 µM

SMILES: O=C(Nc1cncc(C(F)(F)F)c1)Nc1cnn2cc(Cl)nc2c1C1CC1
- IC50 [2]: < 0.1 µM

SMILES: CCc1ccc2cnn(C)c2c1NS(=O)(=O)c1ccc(N2C[C@](O)(C(F)(F)F)CC2=O)nc1
- IC50 [6]: 0.016 µM
- IC50 [7]: 0.053 µM

SMILES: O=C1NC2C=CC(n3ncc(C(=O)Nc4cnc(-n5nccn5)c(Cl)c4)c3C(F)(F)F)=C3C=CC=C1C32 (stereo not drawn)
- IC50 [5]: 0.015 µM

SMILES: CC(C)C[C@H](NC(=O)OCc1ccccc1)C(=O)N[C@H](C(=O)N1CCC[C@H]1C(=O)N[C@@H](CCCNC(=N)N)C(=O)CF)C(C)C (Cbz-LVPR-CH2F)
- GI50 [1]: 0.768 µM

SMILES: CC(C)[C@H](NC(=O)OCc1ccccc1)C(=O)N1CCC[C@H]1C(=O)N[C@@H](CCCNC(=N)N)C(=O)CF (Cbz-Val-Pro-Arg-CH2F)
- Ki [8]: 0.03 µM
- GI50 [1]: 5.62 µM

SMILES: CC1(C)CCC2=C(O1)c1ccccc1C(=O)C2=O [LAPACHONE]
- IC50 [9]: 4 µM

SMILES: CN(C)CCCN1c2ccccc2Sc2ccccc21 [PROMAZINE]
- IC50 [10]: 3.79 µM
